Assay: xn = mol fraction of the nth substance listed

CCCNCCC + CCCCCCCCCCO
viscosity [mPa·s], 101.33 kPa
Settings | x1 = 0.1006 | x1 = 0.1963 | x1 = 0.2905 | x1 = 0.3847 | x1 = 0.5117 | x1 = 0.618 | x1 = 0.7197 | x1 = 0.8159 | x1 = 0.895
303.15 K | 7.53 | 6.262 | 5.075 | 3.99 | 2.748 | 1.943 | 1.364 | 0.9795 | 0.7427
313.15 K | 5.817 | 4.775 | 3.828 | 2.993 | 2.07 | 1.486 | 1.076 | 0.7925 | 0.6095

CCCNCCC + CCCCCCCCO
viscosity [mPa·s], 101.33 kPa
Settings | x1 = 0.0971 | x1 = 0.1988 | x1 = 0.2871 | x1 = 0.3825 | x1 = 0.4806 | x1 = 0.5852 | x1 = 0.6925 | x1 = 0.7882 | x1 = 0.8977
303.15 K | 5.165 | 4.21 | 3.462 | 2.752 | 2.135 | 1.61 | 1.202 | 0.9319 | 0.6909
313.15 K | 3.773 | 3.107 | 2.571 | 2.053 | 1.6 | 1.223 | 0.9264 | 0.7294 | 0.5547

CC1CCCCC1 + CCCCCCCO
Settings | viscosity [mPa·s]
298.15 K, 101 kPa, x1 = 0.111 | 4.608
298.15 K, 101 kPa, x1 = 0.2237 | 3.546
298.15 K, 101 kPa, x1 = 0.389 | 2.371
298.15 K, 101 kPa, x1 = 0.6878 | 1.192
298.15 K, 101 kPa, x1 = 0.8281 | 0.89
298.15 K, 101 kPa, x1 = 0.9181 | 0.757
303.15 K, 101.33 kPa, x2 = 0.1208 | 0.7838
303.15 K, 101.33 kPa, x2 = 0.211 | 0.9181
303.15 K, 101.33 kPa, x2 = 0.3517 | 1.174
303.15 K, 101.33 kPa, x2 = 0.4355 | 1.364
303.15 K, 101.33 kPa, x2 = 0.5214 | 1.599
303.15 K, 101.33 kPa, x2 = 0.608 | 1.899
303.15 K, 101.33 kPa, x2 = 0.718 | 2.394
303.15 K, 101.33 kPa, x2 = 0.7991 | 2.87
303.15 K, 101.33 kPa, x2 = 0.8894 | 3.56

CCCNCCC + CCCCCCCO
viscosity [mPa·s], 101.33 kPa
Settings | x1 = 0.0952 | x1 = 0.1932 | x1 = 0.2891 | x1 = 0.3853 | x1 = 0.5194 | x1 = 0.6089 | x1 = 0.717 | x1 = 0.8156 | x1 = 0.9054
303.15 K | 4.145 | 3.485 | 2.867 | 2.311 | 1.672 | 1.333 | 1.02 | 0.809 | 0.6553
313.15 K | 3.063 | 2.556 | 2.111 | 1.724 | 1.283 | 1.045 | 0.8136 | 0.6509 | 0.5273
